Data on 11 compounds can be found in patent US5173403A, “Thermostable acid protease from sulfolobus acidocaldarius and gene” (Oklahoma Medical Research Foundation, priority 1990, dated 1992).

The experiment concerns the target T1, thermopsin, thermostable acid protease purified from Sulfolobus acidocaldarius culture medium (Sulfolobus acidocaldarius, UniProt P17118).
T1 construct: There are 41 amino acids in front of the NH2 -terminal position of thermopsin including the initiation methionine; made in house; host or cells: native enzyme purified from Sulfolobus acidocaldarius culture medium (not recombinant)
T1 sequence (P17118 42-340): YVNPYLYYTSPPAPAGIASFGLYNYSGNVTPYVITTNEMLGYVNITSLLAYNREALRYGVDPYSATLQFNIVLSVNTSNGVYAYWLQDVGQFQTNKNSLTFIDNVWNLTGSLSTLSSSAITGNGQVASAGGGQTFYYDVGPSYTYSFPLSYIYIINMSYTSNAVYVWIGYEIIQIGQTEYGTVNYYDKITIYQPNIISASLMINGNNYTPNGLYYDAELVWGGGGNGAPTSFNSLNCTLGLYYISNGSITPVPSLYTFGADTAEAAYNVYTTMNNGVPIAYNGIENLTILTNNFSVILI
The experiment is described as follows: Effects of proteinase inhibitors on thermopsin (preincubation with inhibitor, then 14C-hemoglobin proteolytic assay). It is filed as biochemical. To be noted: for remaining activity at 20 µM: 0.02 mM inhibitor in preincubation (pH 6.0, 37° C., 5 min); for remaining activity at 10 µM: 0.01 mM inhibitor in preincubation (pH 6.0, 37° C., 5 min). On the procedure:
Proteolytic activity is routinely assayed using ^14 C-methylated bovine hemoglobin as substrate, as prepared according to the method of Lin, et al., J. Biol. Chem. 264,4482-4489 (1989). The assay mixture, containing 0.51% hemoglobin substrate and thermopsin in 0.1 ml of 0.1M sodium formate, pH 3.2, is placed in an Eppendorf tube. After incubation at 80° C. for a period of time between 5 to 30 min, depending on the level of activity of thermopsin used, an aliquot of 0.1 ml of 10% trichloracetic acid is added to stop the reaction and precipitate the protein. After removal of the precipitate by centrifugation, the radioactivity of an aliquot of the clear supernate is determined in a scintillation counter.
The effect of various protease inhibitors on the activity of thermopsin was tested.
Thermopsin is preincubated with the indicated level of inhibitor in 0.1 M
phosphate buffer, pH 6.0, containing 1 mM EDTA and DTT at 37° C.
for 5 min. Sodium formate (pH 3.2) and ^14 CHemoglobin is then added
to a concentration as described above. The enzyme assay is then carried
out at 80° C. for 15 min. Enzyme activity is expressed as percent

The mark [1] stands for this setting: concentration not given, see Table II.
Setting [2] is: assay pH 3.2, 80° C., 15 min, percent of control, read-out: Enzyme Activity (%).

The structures appear in SMILES notation. pIC50: −log10 of the molar value. “And” between values parts separate entries of the source, which are not always exact repeats. Equal values may be shown once. “Also recorded” adds a separate entry of the source. Read-outs that look alike come from different tables or passages of the source. Numbered stars: 1 amine (or outer) side, 2 acyl side, 3 side chain; on linkers, the order of the positions; unused ones are H or OH. Square brackets hold non-standard residues; d marks the D form. Peptide text beside a SMILES is read from it. * marks the point of attachment. Sta = CC(C)C[C@H](N)[C@@H](O)CC(=O)O; Isovaleryl = CC(C)CC(=O)*; CO = O=C([*:1])[*:2]

In the case of `CCN1C(=O)C=CC1=O` [N-ethylmaleimide], for the setting “0.1 mM inhibitor in preincubation (pH 6.0, 37° C., 5 min), assay pH 3.2, 80° C., 15 min, percent of control, read-out: Enzyme Activity (%)”, the remaining activity at 100 µM is 95%. For the same compound, under setting [1], the “effect of inhibitor on thermopsin activity (in words)” value (“effect of inhibitor” below) is reported as “little effect”.

As to `CC(=O)N[C@@H](CC(C)C)C(=O)N[C@@H](CC(C)C)C(=O)N[C@H](C=O)CCCNC(=N)N` [Leupeptin, leupeptin], the remaining activity at 4 µM (0.004 mM inhibitor in preincubation (pH 6.0, 37° C., 5 min), assay pH 3.2, 80° C., 15 min, percent of control, read-out: Enzyme Activity (%)) worked out at 93%.

Take `CC(C)[C@H](NC(=O)[C@H](CCCNC(=N)N)NC(=O)N[C@@H](Cc1ccccc1)C(=O)O)C(=O)N[C@H](C=O)CCCNC(=N)N` [Antipain, antipain] ({Phe-CO}-Arg-Val-Arg-aldehyde): the remaining activity at 20 µM under setting [2] came out at 25%. In addition, the “effect of inhibitor” value under setting [1] was “inhibited; also recorded: significant inhibition”.

Consider `O=C(O)CI` [Iodoacetic Acid, iodoacetic acid], for which the “effect of inhibitor” value was “little effect”. In addition, under “read-out: Enzyme Activity (%)”, the remaining activity at 100 µM came to 74%.

For `O=C(O)CN(CCN(CC(=O)O)CC(=O)O)CC(=O)O` [EDTA], the “effect of inhibitor” value is reported as “little effect”. Moreover, the remaining activity at 1000 µM (read-out: Enzyme Activity (%)) was 100%.

Consider `CCCCC(NC(=O)C=[N+]=[N-])C(=O)OC` (racemic) [DAN, diazoacetyl-DL-norleucinemethlyester], for which the remaining activity at 12000 µM (12 mM inhibitor in preincubation (pH 6.0, 37° C., 5 min), assay pH 3.2, 80° C., 15 min, percent of control, read-out: Enzyme Activity (%)) worked out at 100%. The “effect of inhibitor” value under setting [1] was “not inactivated; also recorded: no effect”.

On to `O=S(=O)(F)Cc1ccccc1` [PMSF, phenylmethylsulfonyl fluoride], for which the “Enzyme Activity (%)” value (2 mM inhibitor in preincubation (pH 6.0, 37° C., 5 min), assay pH 3.2, 80° C., 15 min, percent of control) was found to be 28%. Besides, the “effect of inhibitor” value under setting [1] is “significantly inactivate; also recorded: significant inhibition”.

`Cc1ccc(S(=O)(=O)N[C@@H](CCCCN)C(=O)CCl)cc1` [TLCK, N-p-Tosyl-1-lysine chloromethyl ketone]: the remaining activity at 10 µM under setting [2] is 78%. For the same compound, the “effect of inhibitor” value under setting [1] is “much less effective”.

On to `CC(C)CC(=O)N[C@H](C(=O)N[C@H](C(=O)N[C@@H](CC(C)C)[C@@H](O)CC(=O)N[C@@H](C)C(=O)N[C@@H](CC(C)C)[C@@H](O)CC(=O)O)C(C)C)C(C)C` [Pepstatin, pepstatin] (Isovaleryl-VV[Sta]A[Sta]-OH), for which, for the setting “0.5 μM inhibitor in preincubation (pH 6.0, 37° C., 5 min), assay pH 3.2, 80° C., 15 min, percent of control, read-out: Enzyme Activity (%)”, the remaining activity at 0.5 µM stood at 50%. Besides, the remaining activity at 5 µM (5 μM inhibitor in preincubation (pH 6.0, 37° C., 5 min), assay pH 3.2, 80° C., 15 min, percent of control, read-out: Enzyme Activity (%)) turned out to be 16%. Besides, under setting [1], the “effect of inhibitor” value was “strongly inhibited”. For the same compound, under “thermopsin proteolytic activity, hemoglobin substrate, read-out: inhibitor concentration giving 50% inhibition of enzyme activity”, the pIC50 was ~6.30 and 6.30.

In the case of `Cc1ccc(S(=O)(=O)N[C@@H](Cc2ccccc2)C(=O)CCl)cc1` [TPCK, N-Tosyl-L-phenylalanine chloromethyl ketone], the remaining activity at 10 µM under setting [2] worked out at 14%. In addition, under setting [1], the “effect of inhibitor” value is “significantly inactivate; also recorded: significant inhibition”.

On to `CC(C)C[C@H](NC(=O)N[C@H](C(=O)N[C@@H](CCC(N)=O)C(=O)N[C@@H](C)C=O)[C@@H]1CCNC(=N)N1)C(=O)O` [Elastatinal, elastatinal], for which the remaining activity at 20 µM under setting [2] is 70%.
